Read-outs that look alike come from different tables or passages of the source.
Columns and labels:
[1] = target: T1, mutant HIV reverse transcriptase (K103N mutation) (Human immunodeficiency virus type 1 group M subtype B, UniProt P04585, K690N); assay: Analogous RT inhibition assay, K103N mutant; format: biochemical
T1 construct: mutations that occur in the reverse transcriptase segment of the pol gene; made in house
Method: (§1) 100 μL reaction mixtures were initiated with a combination of primer-template substrate (10 nM final concentration) and dNTPs (0.6 μM dNTPs, 0.75 μM [^3H]-dGTP). The heterodimeric nucleic acid substrate was generated by annealing the DNA primer pD500 (described in Shaw-Reid et al., J. Biol. Chem., 278: 2777-2780; obtained from Integrated DNA Technologies) to t500, a 500 nucleotide RNA template created by in vitro transcription (see Shaw-Reid et al., J. Biol. Chem., 278: 2777-2780). After 1 hour incubation at 37° C., reactions were quenched by 10 μl, streptavidin scintillation proximity assay beads (10 mg/mL, from Amersham Biosciences) in 0.5 M EDTA, pH 8. Microtiter plates were incubated an additional 10 minutes at 37° C. prior to quantification via Topcount (Packard).
(§2) Analogous assays were conducted substituting mutant HIV strains to determine the […] inhibition of compounds of the present invention against mutant HIV reverse transcriptase. In one strain the reverse transcriptase has the Y181C mutation and in the other strain the reverse transcriptase has the K103N mutation. The mutations were generated with the […] site-directed mutagenesis kit (Stratagene). […] The compounds set forth in the other Examples were not tested in the Y181C assay. […] The compounds set forth in the other Examples were not tested in the K103N assay.

[2] = tested on: acute HIV infection of T-lymphoid cells; assay: Assay for inhibition of HIV replication (spread assay); format: cell-based; details: Human immunodeficiency virus 1; inhibition of acute HIV infection of T-lymphoid cells; read-out: IC95, spread assay
Method: An assay for the inhibition of acute HIV infection of T-lymphoid cells (alternatively referred to herein as the “spread assay”) was conducted in accordance with Vacca, J. P. et al., Proc. Natl. Acad. Sci. USA 1994, 91: 4096. […] The compounds set forth in the other Examples were not tested in the spread assay.

[3] = target: T2, mutant HIV reverse transcriptase (Y181C mutation) (Human immunodeficiency virus type 1 group M subtype B, UniProt P04585, Y768C); assay: Analogous RT inhibition assay, Y181C mutant; format: biochemical
T2 construct: mutations that occur in the reverse transcriptase segment of the pol gene; made in house
Method: as §1, §2

[4] = reverse transcriptase with K103N mutation, tested up to 20 micromolar, read-out: IC50, K103N mutant assay
[5] = reverse transcriptase with Y181C mutation, tested up to 20 micromolar, read-out: IC50, Y181C mutant assay

SMILES	IC50 [1] [nM]	IC95 [2] [µM]	IC50 [3] [µM]	IC50 [1, 4] [nM]	IC50 [3, 5] [µM]
O=C(Nc1ccccc1F)Nc1[nH]c2ccc(Cl)cc2c1S(=O)(=O)c1ccccc1 [Example 2, N-[5-chloro-3-(phenylsulfonyl)-1H-indol-2-yl]-N-(2-fluorophenyl)urea]	< 1000	< 1			
O=C(Nc1[nH]c2ccc(Cl)cc2c1S(=O)(=O)c1ccccc1)C1CC1 [Example 3, N-[5-Chloro-3-(phenylsulfonyl)-1H-indol-2-yl]cyclopropanecarboxamide]	< 1000	< 1	1 to 20		
CC(=O)OCC(=O)Nc1[nH]c2ccc(Cl)cc2c1S(=O)(=O)c1ccccc1 [Example 5, 2-{[5-chloro-3-(phenylsulfonyl)-1H-indol-2-yl]amino}-2-oxoethyl acetate]	< 1000	< 1	< 1		
O=C(CCOc1ccccc1)Nc1[nH]c2ccc(Cl)cc2c1S(=O)(=O)c1ccccc1 [Example 8, N-[5-chloro-3-(phenylsulfonyl)-1H-indol-2-yl]-3-phenoxypropanamide]	> 20000	< 1	> 20		
O=C(Nc1[nH]c2ccc(Cl)cc2c1S(=O)(=O)c1ccccc1)C1Cc2ccccc2O1 (stereo not drawn) [Example 10, N-[5-chloro-3-(phenylsulfonyl)-1H-indol-2-yl]-2,3-dihydro-1-benzofuran-2-carboxamide]	< 1000	< 1	< 1		
O=C(Nc1[nH]c2ccc(Cl)cc2c1S(=O)(=O)c1ccccc1)C1COc2ccccc2O1 (stereo not drawn) [Example 11, N-[5-chloro-3-(phenylsulfonyl)-1H-indol-2-yl]-2,3-dihydro-1,4-benzodioxine-2-carboxamide]	< 1000	< 1	< 1		
CC(C)C(=O)Nc1[nH]c2ccc(Cl)cc2c1S(=O)(=O)c1ccccc1 [Example 15, N-[5-chloro-3-(phenylsulfonyl)-1H-indol-2-yl]-2-methylpropanamide]	1000 to 20000	< 1	1 to 20		
CCNCC(=O)Nc1[nH]c2ccc(Cl)cc2c1S(=O)(=O)c1ccccc1 [Example 21, N^1-[5-chloro-3-(phenylsulfonyl)-1H-indol-2-yl]-N^2-ethylglycinamide]	< 1000	< 1	< 1		
CCC(C)C(=O)Nc1[nH]c2ccc(Cl)cc2c1S(=O)(=O)c1ccccc1 (stereo not drawn) [Example 26, N-[5-chloro-3-(phenylsulfonyl)-1H-indol-2-yl]-2-methylbutanamide]	1000 to 20000	< 1	< 1		
O=C(Nc1ccc(F)cc1)Nc1[nH]c2ccc(Cl)cc2c1S(=O)(=O)c1ccccc1 [Example 31, N-[5-chloro-3-(phenylsulfonyl)-1H-indol-2-yl]-N′-(4-fluorophenyl)urea]	> 20000	< 1	> 20		
O=C(CN1CCC(c2ccncc2)CC1)Nc1[nH]c2ccc(Cl)cc2c1S(=O)(=O)c1ccccc1 [Example 37, N-[5-chloro-3-(phenylsulfonyl)-1H-indol-2-yl]-2-(4-pyridin-4-ylpiperidin-1-yl)acetamide]	> 20000		> 20		
O=C(CNCc1cscn1)Nc1[nH]c2ccc(Cl)cc2c1S(=O)(=O)c1ccccc1 [Example 38, N^1-[5-chloro-3-(phenylsulfonyl)-1H-indol-2-yl]-N^2-(1,3-thiazol-4-ylmethyl)glycinamide]	< 1000		< 1		
CO[C@@](C(=O)Nc1[nH]c2ccc(Cl)cc2c1S(=O)(=O)c1ccccc1)(c1ccccc1)C(F)(F)F [Example 39, (2R)-N-[5-chloro-3-(phenylsulfonyl)-1H-indol-2-yl]-3,3,3-trifluoro-2-methoxy-2-phenylpropanamide]	< 1000	< 1	< 1		
O=C(NCc1cccc(F)c1)Nc1[nH]c2ccc(Br)cc2c1S(=O)(=O)N1CCCC1 [Example 70]				< 1000	
O=C(NCc1cccc(Cl)c1)Nc1[nH]c2ccc(Br)cc2c1S(=O)(=O)N1CCCC1 [Example 71, N-[5-bromo-3-(pyrrolidin-1-ylsulfonyl)-1H-indol-2-yl]-N′-(3-chlorobenzyl)urea]		< 1	1 to 20	< 1000	
O=C(NCc1ccccc1)Nc1[nH]c2ccc(Br)cc2c1S(=O)(=O)N1CCCC1 [Example 72, N-benzyl-N′-[5-bromo-3-(pyrrolidin-1-ylsulfonyl)-1H-indol-2-yl]urea]		< 1	< 1	< 1000	

SMILES	IC50 [1] [nM]	IC95 [2] [µM]	IC50 [3] [µM]	IC50 [1, 4] [nM]	IC50 [3, 5] [µM]
O=C(Nc1ccccc1)Nc1[nH]c2ccc(Br)cc2c1S(=O)(=O)N1CCCC1 [Example 73, N-[5-bromo-3-(pyrrolidin-1-ylsulfonyl)-1H-indo1-2-yl]-N′-phenylurea]		< 1		< 1000	
CC(C)NC(=O)Nc1[nH]c2ccc(Br)cc2c1S(=O)(=O)N1CCCC1 [Example 74, N-[5-bromo-3-(pyrrolidin-1-ylsulfonyl)-1H-indol-2-yl]-N′-isopropylurea]				< 1000	
O=C(Nc1[nH]c2ccc(Br)cc2c1S(=O)(=O)N1CCCC1)NC1CCCC1 [Example 78, N-[5-bromo-3-(pyrrolidin-1-ylsulfonyl)-1H-indol-2-yl]-N′-cyclopentylurea]			> 20	< 1000	
O=C(NCc1ccccc1O)Nc1[nH]c2ccc(Br)cc2c1S(=O)(=O)N1CCCC1 [Example 79, N-[5-bromo-3-(pyrrolidin-1-ylsulfonyl)-1H-indol-2-yl]-N′-(2-hydroxybenzyl)urea]			> 20	< 1000	
O=C(NCc1ccccn1)Nc1[nH]c2ccc(Br)cc2c1S(=O)(=O)N1CCCC1 [Example 80, N-[5-bromo-3-(pyrrolidin-1-ylsulfonyl)-1H-indol-2-yl]-N′-(pyridin-2-ylmethyl)urea]			1 to 20	< 1000	
O=C(NCc1cccnc1)Nc1[nH]c2ccc(Br)cc2c1S(=O)(=O)N1CCCC1 [Example 81, N-[5-bromo-3-(pyrrolidin-1-ylsulfonyl)-1H-indol-2-yl]-N′-(pyridin-3-ylmethyl)urea]			1 to 20	< 1000	
O=C(NCc1cncs1)Nc1[nH]c2ccc(Br)cc2c1S(=O)(=O)N1CCCC1 [Example 83, N-[5-bromo-3-(pyrrolidin-1-ylsulfonyl)-1H-indol-2-yl]-N′-(1,3-thiazol-5-ylmethyl)urea]			1 to 20	< 1000	
O=C(Nc1[nH]c2ccc(Br)cc2c1S(=O)(=O)N1CCCC1)N1CCCC1 [Example 84, N-[5-bromo-3-(pyrrolidin-1-ylsulfonyl)-1H-indol-2-yl]pyrrolidine-1-carboxamide]				< 1000	> 20
O=C(NCCc1ccccc1)Nc1[nH]c2ccc(Br)cc2c1S(=O)(=O)N1CCCC1 [Example 85, N-[5-bromo-3-(pyrrolidin-1-ylsulfonyl)-1H-indol-2-yl]-N′-(2-phenylethyl)urea]				< 1000	> 20
NC(=O)C1CCCN(C(=O)Nc2[nH]c3ccc(Br)cc3c2S(=O)(=O)N2CCCC2)C1 (stereo not drawn) [Example 87, N^1-[5-bromo-3-(pyrrolidin-1-ylsulfonyl)-1H-indol-2-yl]piperidine-1,3-dicarboxamide]				< 1000	> 20
O=C(NCCc1ccccn1)Nc1[nH]c2ccc(Br)cc2c1S(=O)(=O)N1CCCC1 [Example 88, N-[5-bromo-3-(pyrrolidin-1-ylsulfonyl)-1H-indol-2-yl]-N′-(2-pyridin-2-ylethyl)urea]	1000 to 20000				> 20
CN1CCN(C(=O)Nc2[nH]c3ccc(Br)cc3c2S(=O)(=O)N2CCCC2)CC1 [Example 91, N-[5-bromo-3-(pyrrolidin-1-ylsulfonyl)-1H-indol-2-yl]-4-methylpiperazine-1-carboxamide]	1000 to 20000				> 20
CC(C)(C)CCNC(=O)Nc1[nH]c2ccc(Br)cc2c1S(=O)(=O)N1CCCC1 [Example 92, N-[5-bromo-3-(pyrrolidin-1-ylsulfonyl)-1H-indol-2-yl]-N′-(3,3-dimethylbutyl)urea]	> 20000				> 20
O=C(NCCNc1ccccc1)Nc1[nH]c2ccc(Br)cc2c1S(=O)(=O)N1CCCC1 [Example 93, N-(2-anilinoethyl)-N′-[5-bromo-3-(pyrrolidin-1-ylsulfonyl)-1H-indol-2-yl]urea]	1000 to 20000				> 20
CN(C)CCCNC(=O)Nc1[nH]c2ccc(Br)cc2c1S(=O)(=O)N1CCCC1 [Example 94, N-[5-bromo-3-(pyrrolidin-1-ylsulfonyl)-1H-indol-2-yl]-N′-[3-(dimethylamino)propyl]urea]	< 1000		1 to 20		

— patent US20100179122A1 (priority 2005, published 2010)
